Results from PubChem BioAssay (NCI).
Several values for one entry are separate records, joined by “and”; a condition that tells them apart may be missing. Identical values can stand only once.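 How tested: cells in 96-well plates exposed to compound for 48 hours at five concentrations. Abbreviation: GI50, concentration required for 50% inhibition of growth. TGI: concentration producing complete growth inhibition.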

Tests used:
Assay in all cases: growth of human tumour cells (NCI), 48 h
786-0 renal = test system: 786-0 renal
EKVX NSCLC = test system: EKVX NSCLC
HOP-62 NSCLC = test system: HOP-62 NSCLC
NCI-H23 lung = test system: NCI-H23 lung
NCI-H460 lung = test system: NCI-H460 lung
RXF 393 renal = test system: RXF 393 renal
SF-539 CNS = test system: SF-539 CNS
SK-MEL-28 melanoma = test system: SK-MEL-28 melanoma
SK-OV-3 ovarian = test system: SK-OV-3 ovarian
SN12C renal = test system: SN12C renal

SMILES | GI50 (786-0 renal) [µM] | TGI (786-0 renal) [µM] | GI50 (EKVX NSCLC) [µM] | TGI (EKVX NSCLC) | GI50 (HOP-62 NSCLC) [µM] | TGI (HOP-62 NSCLC) [µM] | GI50 (NCI-H23 lung) [µM] | TGI (NCI-H23 lung) [µM] | GI50 (NCI-H460 lung) [µM] | TGI (NCI-H460 lung) [µM] | GI50 (RXF 393 renal) [µM] | TGI (RXF 393 renal) [µM] | GI50 (SF-539 CNS) [µM] | TGI (SF-539 CNS) [µM] | GI50 (SK-MEL-28 melanoma) [µM] | TGI (SK-MEL-28 melanoma) [µM] | GI50 (SK-OV-3 ovarian) [µM] | TGI (SK-OV-3 ovarian) [µM] | GI50 (SN12C renal) [µM] | TGI (SN12C renal) [µM]
O=C(NCCNc1nccc(-c2c(-c3cccc(O)c3)nc3sccn23)n1)c1ccccc1O | 6.25 | 43.1 | 11.8 | 50.9 µM | 9.04 | 42.1 | 4.51 | 36.8 | 4.16 | 19.6 | 2.78 | 16.8 | 7.27 | 24.5 | 0.43 | 33.3 | 4.31 | 39.7 | 3.56 | 52
NC1CCC(Nc2nc(NCc3ccc(-c4ccco4)nc3)c3ncn(C4CCCC4)c3n2)CC1 (stereo not given) | 0.0732 | 1.8 | 0.0465 | 0.538 µM and 0.242 µM | 0.0238 | 0.0806 | 0.0264 | 0.0953 | 0.0469 | 11.3 | 0.0179 | 0.04 | 0.0379 | 0.204 | 0.0227 | 0.0686 | 0.049 | 15.6 | 0.0371 | 11.6
C=C(CNCCO)[C@@H]1CC[C@]2(CO)CC[C@]3(C)[C@H](CC[C@@H]4[C@@]5(C)CCC(N)C(C)(C)[C@@H]5CC[C@]43C)[C@@H]12 (stereo not given in full) | 1.63 | 3.31 | 4.59 | 18.1 µM | 2.79 | 7.36 | 4.66 | 17.6 | 1.94 | 4.12 | 1.53 | 3.08 | 1.75 | 3.21 | 1.96 | 3.6 | 11.1 | 23.3 | 1.97 | 4.07
Cn1ccnc1C(=O)/C=C/c1ccc(CC(=O)Nc2ccc(Br)cc2)cc1 | 2.77 | 5.92 | 2.76 | 11.7 µM | 3.34 | 7.9 | 2.75 | 7.1 | 3 | 8.51 | 3.12 | 6.03 | 2.43 | 4.81 | 3.32 | 7.63 | 8.88 | > 16.7 | 3.88 | 11.1
CC(=O)OC1COC(n2c(=S)n(-c3ccc(C)cc3)c(=O)c3ccccc32)C(OC(C)=O)C1OC(C)=O (stereo not given) | – | > 100 | – | > 100 µM | – | > 100 | – | > 100 | – | > 100 | – | > 100 | – | > 100 | – | > 100 | – | > 100 | – | > 100
Cc1cc(=O)[nH]c2cc3oc4ccccc4c3cc12 | – | > 81.8 | – | > 100 µM | – | > 100 | – | > 100 | – | > 100 | – | > 100 | – | > 100 | – | > 100 | – | > 100 | – | > 100
O=C1c2cccnc2-c2nc(-c3ccccc3[N+](=O)[O-])cc3c2c1nc1ccccc13 | 14.7 | 35.1 | 31.6 | > 74.3 µM | 16 | 41 | 3.67 | 18.9 | 12 | 33.8 | 20.7 | 98.3 | 6.3 | 24.3 | 27.6 | > 63.5 | 67 | > 100 | 15.6 | 37.9
CSc1ccc(/C=C2\CN(C)C/C(=C\c3ccc(SC)cc3)C2=O)cc1 | – | > 100 | – | > 100 µM | – | > 100 | – | 34.5 | – | > 100 | – | > 100 | – | 78.9 | – | > 100 | – | 88.1 | – | 78.9
O=C(N/C(=C\c1cc(Cl)ccc1Cl)c1nc2[nH]c(=S)[nH]c(=O)c2[nH]1)c1ccccc1 | – | 32.2 | – | > 79.6 µM | – | > 100 | – | > 65.8 | – | > 100 | – | 41.5 | – | > 76.7 | – | > 83.5 | – | > 100 | – | > 66.6
COc1ccc(C2=CSc3cc(Cl)c(C)cc3S(=O)(=O)N2C(C)=O)cc1 | 39.1 | > 100 | 38.2 | > 100 µM | 47.2 | > 100 | 36.4 | > 100 | 29 | 99.5 | 35.6 | > 100 | 33 | 78.6 | 56 | > 100 | 60.6 | > 100 | 13.7 | 41.7
CCOC(=O)C(Sc1ccccc1)c1c(OC)cc(=O)oc1/C=[N+](/[O-])c1ccc(N(C)C)cc1 (stereo not given) | – | 42.4 | – | > 100 µM | – | > 100 | – | 78.5 | – | 82.5 | – | 32.5 | – | 56.9 | – | 37 | – | > 100 | – | 32
O=[N+]([O-])c1cnc(Sc2ccncn2)s1 | 6.72 | 18.4 | 6.46 | 22.1 µM | 21.8 | 40.2 | 8.99 | 26.4 | 8.12 | 25.9 | 0.312 | 1.68 | 5.61 | 14.9 | 1.98 | 3.69 | 21.2 | 45.4 | 3.24 | 8.41
CN(C)CCCNC1=C(Cl)C(=O)c2ccccc2C1=O | 11.3 | 24.2 | 1.72 | 3.41 µM | 6.23 | 17.5 | 1.74 | 3.87 | 8.61 | 25.2 | 1.69 | 3.14 | 12.8 | 27 | 1.88 | 3.41 | 15 | 28.3 | 1.62 | 3.12
CC1=C(C(=O)Nc2ccccc2C)C(c2ccco2)C(C(=O)Nc2ccccc2C)=C(C)N1C | – | > 100 | – | > 100 µM | – | > 100 | – | > 100 | – | > 100 | – | > 100 | – | > 100 | – | > 100 | – | > 100 | – | > 100
CC1=C(C(=O)Nc2ccc(F)c(Cl)c2)C(c2ccc(Cl)cc2)NC(=O)N1 (stereo not given) | 16.5 | 31.7 | 18.5 | 49.9 µM | 15.5 | 30.8 | 17.4 | 33.8 | 17.5 | 37.3 | 17.6 | 37.2 | 14 | 29.7 | 16.5 | 32.6 | 81.8 | > 100 | 17.8 | 32.2
COc1ccc(NC(=O)c2cc(OC)cc(OC)c2)cc1 | – | > 100 | – | > 100 µM | – | > 100 | – | > 100 | – | > 100 | – | 55.9 | – | > 70.3 | – | > 100 | – | > 84.8 | – | > 100
O=C(/C=C/c1ccccc1Cl)c1ccc(Cl)c(Cl)c1 | – | 29.8 | – | 37.4 µM | – | 57.6 | – | 36.4 | – | > 100 | – | 26 | – | 33.1 | – | 40.4 | – | 51.3 | – | > 100
CCCCCCCC(=O)SCC/C=C/[C@@H]1CC(=O)NCc2cccc(n2)C2=N[C@@](C)(CS2)C(=O)N[C@@H](C(C)C)C(=O)N1 | 5.52 | > 33.3 | 1.75 | > 33.3 µM | 1.07 | > 33.3 | 2.1 | > 33.3 | 0.532 | > 33.3 | 2.14 | 19.9 | 2.72 | > 33.3 | 1.02 | > 33.3 | 1.23 | 11 | 3.25 | > 33.3
CN(C)c1ccc(-c2cc(-c3ccc(Nc4nc(Nc5ccc(Cl)cc5)nc(Nc5ccc(Cl)cc5)n4)cc3)no2)cc1 | 1.51 | 3.66 | 10.5 | > 100 µM | 4.8 | 24.1 | 6.41 | 35.8 | 3.03 | 12.3 | 2.76 | 6.04 | 5.18 | 21.2 | 6.49 | 46.9 | 20 | 67 | 9.63 | 61
CNC(=O)c1ccccc1Nc1nc(Nc2ccc(N3CCOCC3)cc2OC)ncc1Cl | 1.03 | > 35.1 | 0.274 | > 24.7 µM | 0.341 | 9.07 | 0.571 | > 43.8 | 0.361 | > 34.4 | 0.797 | 3.31 | 1.29 | 7.68 | 1.35 | > 37.1 | 0.543 | 3.7 | 1.77 | > 100
CCOc1ccccc1-n1c(CN2CCN(C(=O)COc3ccc(CNCCCCCCN4C5CCCC4CC(OC(=O)Nc4cc(C)ccc4OC)C5)cc3)CC2)nc2ccccc2c1=O (stereo not given) | 1.58 | 3.09 | 1.67 | 3.33 µM | 1.7 | 3.25 | 1.93 | 3.66 | 0.806 | 1.94 | 1.38 | 2.88 | 1.69 | 3.14 | 1.81 | 3.25 | 1.89 | 3.45 | 1.76 | 3.24
COc1ccc(/C=C\c2cc(OC)c3c(c2)OCO3)c(O)c1O | – | 14.7 | – | 40.4 µM | – | 64.5 | – | 22.3 | – | 22.2 | – | 11.7 | – | 4.57 | – | 24.1 | – | > 77 | – | 41.4
COc1cc2nc(-c3ccc(C(F)(F)F)cc3)cc(OCCCN3CCC(O)CC3)c2cc1OC | 4.72 | 19.8 | 1.03 | 21.7 µM | 1.8 | 15 | 6.16 | 21 | 0.835 | 16 | 1.34 | 7.53 | 5.75 | 20.8 | 2.38 | 11.5 | 10.6 | 25.3 | 1.44 | 19.7
Cc1ccc(-c2nnc(-c3ccc4ccccc4c3)o2)cc1 | – | > 100 | – | > 100 µM | – | > 77.4 | – | > 100 | – | > 100 | – | 55.1 | – | > 60.2 | – | > 100 | – | > 100 | – | > 100
COc1ccc(-c2cc(-c3ccc(Nc4nc(Nc5ccccc5)nc(Nc5ccc(Cl)cc5)n4)cc3)nc(N)c2C#N)cc1 | 1.05 | 2.06 | 1.44 | > 22.9 µM | 1.93 | 8.98 | 1.72 | 13.6 | 2.18 | > 39 | 0.654 | 1.89 | 0.857 | 1.77 | 0.857 | 1.76 | > 28.3 | > 50 | 2.03 | > 50
COc1cc2c(c(OC)c1O)C(=O)C(OC)C(c1ccc(O)c(O)c1)O2 (stereo not given) | 1.05 | > 100 | 15.2 | > 100 µM | 0.712 | > 100 | 0.385 | > 100 | 0.364 | > 100 | 0.305 | > 100 | 0.0798 | 4.56 | 10.1 | > 100 | 8.23 | > 100 | 0.426 | > 100
NC(CSC(c1ccccc1)(c1ccccc1)c1ccc2c(c1)OCO2)C(=O)O (stereo not given) | 2.96 | > 89.4 | 0.625 | 79.4 µM | 1.64 | > 100 | 0.545 | 32 | 0.375 | > 40 | 0.499 | 54.1 | 0.392 | > 41 | 0.799 | 98.5 | 0.42 | > 100 | 0.633 | > 100
CC1=C(C#N)C23C(=O)c4ccccc4C(O)=C2C(=O)C=CC3(O)N1Cc1ccccc1 (stereo not given) | 44.5 | > 100 | 43.6 | > 100 µM | 49.9 | > 100 | 29.9 | > 100 | 30.3 | > 100 | 26 | > 100 | 48.2 | > 100 | 57.1 | > 100 | > 100 | > 100 | 52.5 | > 100
